Measurements: patent publication US9938240B2, “Fluorinated derivatives of 3-hydroxypyridin-4-ones” (Apotex Technologies Inc., priority 2009, dated 2018)

How the values were obtained:
[1] = Benzoic acid hydroxylation assay; details: benzoic acid 1 mM, H2O2 6 mM, FeCl3 30 μM, chelator 30 μM, pH 7.4, up to 81 h
Description: Benzoic acid is a hydroxyl radical scavenger and reacts with hydroxyl radical to give 2-hydroxy, 3-hydroxy and 4-hydroxybenzoic acids. The benzoic acid hydroxylation assay is a chemical assay designed to detect damage caused by hydroxyl radical (Dean and Nicholson, Free Radical Research 1994, vol 20, 83-101). For example, deferiprone suppresses the formation of hydroxybenzoic acids in the presence of iron salts and hydrogen peroxide, while EDTA and iron salts allow such hydroxylation reactions to take place.
This screening assay involves the use of iron salt, benzoic acid, hydrogen peroxide and the chelator and measures the ability of the chelator to inhibit the formation of hydroxybenzoate as an indicator to prevent hydroxyl radical formation in living system.
Briefly, this procedure is based on the ability of hydroxyl radicals to hydroxylate benzoate to give 2-, 3- and 4-hydroxylated benzoic acid products. Benzoic acid (1 mM) is incubated over time up to 81 h at room temperature in the dark in 10 mM phosphate buffer (pH 7.4) with 6 mM hydrogen peroxide, ferric chloride (30 μM) and the Fe chelator (30 μM). HPLC is the method of choice used to monitor and quantify the amount of 2-, 3- and 4-hydroxylated products formed over time in the reaction mixture, and can be verified against authentic benzoic acid and its hydroxylated products via their respective retention times and areas under curve. In addition, several controls are used: (i) a control without added Fe stock solution and Fe chelator; (ii) a control without added Fe chelator; (iii) EDTA as positive control; and (iv) deferiprone as negative control. The Fe-EDTA system is a hydroxyl radical generator and is known to promote hydroxylation of benzoic acid.

[2] = test system: SV-NRA cells; assay: MPP+ treated SV-NRA cell viability (MTT); assay type: cell-based; details: 5 mM MPP+ treated SV-NRA cells, 20 μM, 24 h, p<0.05
Method: SV-NRAs cells were plated in a 96-well plate at a density of 10,000 cells/well in 100 μL of DME […], high glucose 1× liquid (Sigma) supplemented with 10% heat-inactivated FBS and 1× antibiotic/antimycotic solution (Sigma). On the next day, the cells were washed with EMEM media (Eagle's minimal essential media; phenol red, serum and glutamine free) and treated for 24 h with 5 mM MPP^+ (1-methyl-4-phenylpyridinium) in EMEM media in the presence or absence of a tested iron chelating compound. All compounds were tested at the following concentrations: 10 μM, 20 μM, and 40 μM. After 24 h of incubation, cell viability was determined with MTT ((3-(4,5-Dimethylthiazol-2-yl)-2,5-diphenyltetrazolium bromide, a yellow tetrazole) assay which measures mitochondrial activity (Carmichael et al. Cancer Research 1987, 47, 936-942). MTT solution (10 μL, 5 mg/mL) was added to the wells and incubated for 2 h. Formazan product was solubilized with 100 μL of 10% SDS (sodium dodecyl sulphate) in 0.01M HCl. Optical density was determined at 570 nm using Multiscan Ascent plate reader (Labsystems) and data collected were corrected for background signal measured at 650 nm. All data are expressed as % of control.
Co-treatment with iron chelators protected the cells from MPP^+ toxicity.

SMILES: CN(C)C(c1c(O)c(=O)ccn1C)C(F)(F)F (centres unmarked) [Apo7041, 2-[1-(dimethylamino)-2,2,2-trifluoroethyl]-3-hydroxy-1-methylpyridin-4(1H)-one]
- hydroxylation of benzoic acid by Fe chelate [1]: do not promote the hydroxylation of benzoic acid

SMILES: Cc1c(O)c(=O)ccn1C [Deferiprone, 3-hydroxy-1,2-dimethylpyridin-4(1H)-one, reference compound]
- increase in cell viability [2]: about 20%
